Measurements from US20250281564A1, “DYSREGULATION OF NEUROPROTEASOMES BY APOE ISOFORMS DRIVES ENDOGENOUS TAU AGGREGATION” (The Trustees of Columbia University in the City of New York, priority 2022, published 2025).

How the values were obtained:
proteasome [1] = target: T1, proteasome (Mus musculus, UniProt O55234+P70195+Q60692); experiment: Covalent biotinylation of proteins in iBEp-treated neurons (SDS-PAGE biotin signal); assay type: cell-based
T1 construct: endogenous in cells
Excerpt: (§1) We next tested the potency and selectivity of iBEp relative to Epoxomicin. Epoxomicin covalently and irreversibly binds the catalytic β subunits of the proteasome-therefore, the biotin moiety on iBEp serves as a tracer to detect whether proteasomes are inhibited by monitoring biotin signal on an SDS-PAGE gel (83, 87-89). […] This is supported by previous data that modification of the non-reactive end of epoxomicin has been shown not to change the selectivity of Epoxomicin for the proteasome (83, 87-89). […] We therefore chose doses of inhibitor where the effective concentration of the inhibitor was similar to previous studies using Epoxomicin alone and well within the acceptable range of efficacy given how potent Epoxomicin is as a proteasome inhibitor.

primary cortical neurons = experiment: Quantitative TMT proteomics of sarkosyl-soluble and sarkosyl-insoluble fractions; assay type: cell-based, mouse; conditions: 1 and 6 hours
Excerpt: (FIG. 4A) (Top) Structure of azide-PEG24-epoxomicin handle to enable rapid conjugation of linkers to global proteasome inhibitor epoxomicin using Click chemistry. (Bottom) Structure of Neuroproteasome-specific inhibitor impermeant Biotin-PEG24-Epoxomicin (iBEp). (FIG. 4B) Assessing permeability of iBEp in primary neurons. […] Cytosolic (Cyto) and membrane (Mem) fractions were immunoblotted using indicated antibodies. (FIG. 4C) Proteasome catalytic activity of membrane (Mem) and cytosolic (Cyto) fractions of neurons treated with iBEp. […] Proteasome catalytic activity was assessed by monitoring degradation of Suc-LLVY-AMC; proteasome-dependent cleavage of the substrate increases AMC fluorescence. N=3 biological replicates. **** p<0.0001 by One-Way ANOVA. (FIG. 4D) Primary neurons treated with iBEp probed for autophagy markers. […] Lysates were immunoblotted using indicated antibodies against common autophagy markers. Quantification of p62, LC3b, and Ulk1 intensities normalized to Actin. […] (FIG. 4E) Schematic to analyze changes in sarkosyl-soluble and insoluble proteomes in response to neuroproteasome inhibition. […] Sarkosyl-soluble and insoluble fractions were labeled with Tandem Mass Tags (TMTpro) for quantitative mass spectrometry. (FIG. 4F) Differential enrichment of proteins in the sarkosyl-soluble fraction of neurons treated with iBEp versus DMSO was analyzed and plotted as log 2-fold change vs-log 10 (P-value). Green dots represent proteins enriched in the iBEp treatment compared to DMSO treatment. (FIG. 4G) Graphs plotting the log 2-fold change of select Neuroproteasome substrates enriched in the sarkosyl-soluble fraction from MS analysis in (FIG. 4F) compared to UPS substrates and autophagy markers ** p<0.01 (adjusted p-value after multiple corrections). (FIG. 4H) Differential enrichment of proteins in the sarkosyl-insoluble fraction of neurons treated with iBEp versus DMSO was analyzed and plotted as log 2-fold change vs −log 10 (P-value). Green dots represent proteins enriched in the iBEp treatment compared to DMSO treatment. […]

human Tau = experiment: Sarkosyl fractionation and Tau immunoblot, hTau-KI primary cortical neurons; assay type: cell-based; conditions: 1 μM, 12 hours, vs DMSO
Excerpt: (§2) (FIG. 5A) Effect of neuroproteasome-specific inhibitor iBEp on Tau aggregation in primary neurons. […] Quantification of soluble and insoluble murine Tau (mTau) intensities normalized to soluble GAPDH. […] (FIG. 5B) Effect of neuroproteasome inhibition on aggregation of human Tau (hTau). […] (FIG. 5C) Generation of reversible neuroproteasome inhibitors to test effects of neuroproteasome inhibition. (Top) Structure of Sulfo-MG132 (SulfoMG). […] (FIG. 5D) Effect of reversible neuroproteasome inhibition using SulfoMG on Tau aggregation. […] Quantification of soluble and insoluble Tau intensities were normalized to soluble GAPDH. Data (right) are mean±SEM normalized respective to DMSO controls. […] (FIG. 5E) Testing iBEp permeability in vivo. […] 72 hours post injection, hippocampi were isolated and subjected to membrane fractionation without detergent. […] (FIG. 5F) Effect of neuroproteasome inhibition on Tau aggregation in vivo.

endogenous mouse Tau = experiment: Sarkosyl fractionation and Tau immunoblot, WT primary cortical neurons; assay type: cell-based; conditions: 1 μM, 12 hours, vs DMSO
Excerpt: as §2

phosphorylated Tau = experiment: Immunocytochemistry for phosphorylated Tau (CP13) in hTau-KI hippocampal neurons; assay type: cell-based, mouse; conditions: 12 hours, primary hippocampal hTau-KI neurons, vs controls
proteasome [2] = target: proteasome (Homo sapiens, UniProt P28072+P28074+Q99436); experiment: Efficacy against the proteasome relative to the parent inhibitor; assay type: biochemical
Excerpt: as §1
Many of our experiments rely on the use of iBEp because the biotin tracer on an irreversible and specific inhibitor allows us to track which proteasomes are inhibited. However, we wanted to validate our findings using a proteasome inhibitor with a distinct mechanism of action from Epoxomicin. We therefore modified MG132, a reversible peptide aldehyde proteasome inhibitor, with a sulfonated biotin linker on the nonreactive N-terminus (84). […] Instead, we turned to cellular and functional readouts of permeability. […]

CC[C@H](C)[C@H](NC(=O)CCOCCOCCOCCOCCOCCOCCOCCOCCOCCOCCOCCOCCOCCOCCOCCOCCOCCOCCOCCOCCOCCOCCOCCOCCn1cc(COCCOCCOCCOCCNC(=O)CCCC[C@@H]2SC[C@@H]3NC(=O)N[C@@H]32)nn1)C(=O)N[C@H](C(=O)N[C@H](C(=O)N[C@@H](CC(C)C)C(=O)[C@@]1(C)CO1)[C@@H](C)O)[C@@H](C)CC [iBEp, Biotin-PEG24-Epoxomicin] was tested, and the “proteins covalently biotinylated in treated neurons (specificity)” value (proteasome [1]) was “covalent biotinylation of only three proteins”, the “cell penetration judged from proteomics (no UPS substrates or autophagy markers accumulate)” value (primary cortical neurons; DIV12-14 primary cortical neurons) was “does not detectably penetrate cells” and the “number of proteins increasing in the soluble fraction” value (primary cortical neurons; vs DMSO) was “over 250 proteins”. The “number of proteins that become sarkosyl-insoluble” value (primary cortical neurons; vs DMSO) was 52 proteins, the “sarkosyl-insoluble Tau, hTau-KI neurons” value (human Tau) was “significant increase in sarkosyl-insoluble Tau” and the “sarkosyl-insoluble Tau, WT neurons” value (endogenous mouse Tau) was “significant increase in sarkosyl-insoluble Tau”. The “CP13 (phosphorylated S202 Tau) signal” value (phosphorylated Tau) was “significant elevation of CP13 signal” and the “efficacy against the proteasome relative to the parent inhibitor” value (proteasome [2]) was “moderately reduces the efficacy of iBEp relative to Epoxomicin”.
